Assay [1] deals with human GABAA α1β2γ1 receptor (Homo sapiens (Human), UniProt P14867+Q8N1C3). The assay is described as follows: Radioligand binding assay, competition for [3H]RO7239181, membranes from HEK293F cells.
The target of assay [2] is human GABAA α5β2γ1 receptor (Homo sapiens (Human), UniProt P31644+Q8N1C3). Described as above.

Consider `Cc1nnc2n1-c1ccc(C(F)(F)F)c(Cl)c1C(c1nc(O)ccc1F)=N[C@H]2C` [Example 20, 6-[(4S)-7-chloro-1,4-dimethyl-8-(trifluoromethyl)-4H-[1,2,4]triazolo[4,3-a][1,4]benzodiazepin-6-yl]-5-fluoro-pyridin-2-ol], for which the figures for the Ki in assay [1] and in assay [2] were 68.1 nM and 5.02 nM, respectively.
Turning to `CN1C(=O)CN=C(c2cc(O)ccc2F)c2c1ccc(C(F)(F)F)c2Cl` [Example 8, 6-chloro-5-(2-fluoro-5-hydroxy-phenyl)-1-methyl-7-(trifluoromethyl)-3H-1,4-benzodiazepin-2-one], the Ki (as a rule, the equilibrium dissociation constant of an inhibitor or competing ligand from its target) was found to be 5.43 nM in assay [1] and 0.44 nM in assay [2].
For `Cc1nnc2n1-c1ccc(Cl)c(Cl)c1C(c1cc(O)ccc1F)=NC2` [Example 3, 3-(7,8-dichloro-1-methyl-4H-[1,2,4]triazolo[4,3-a][1,4]benzodiazepin-6-yl)-4-fluoro-phenol], the Ki in assay [1] amounted to 5.44 nM; in assay [2], 0.36 nM.
For `Cc1cnc2n1-c1ccc(C(F)(F)F)c(Cl)c1C(c1nc(O)ccc1Cl)=N[C@H]2C` [Example 26, 5-chloro-6-[(4S)-7-chloro-1,4-dimethyl-8-(trifluoromethyl)-4H-imidazo[1,2-a][1,4]benzodiazepin-6-yl]pyridin-2-ol] the same measures were 20.5 nM and 3.25 nM.
For `Cc1nnc2n1-c1ccc(C(F)(F)F)c(Cl)c1C(c1cc(O)ccc1F)=NC2` [Example 9, 3-[7-chloro-1-methyl-8-(trifluoromethyl)-4H-[1,2,4]triazolo[4,3-a][1,4]benzodiazepin-6-yl]-4-fluoro-phenol] the same measures were 8.45 nM and 0.86 nM.

(Values after patent US12344614B2, “Benzodiazepine derivatives as GABA a GAMMA1 PAM” (Hoffmann-La Roche Inc., priority 2021, dated 2025).)
